Measurements published in paper PMC4631478, “Structure of AadA from Salmonella enterica: a monomeric aminoglycoside (3′′)(9) adenyltransferase” (Acta Crystallographica Section D: Biological Crystallography, 2015).
Substitutions are numbered along the chain they refer to. Read-outs that look alike come from different tables or passages of the source.

Columns and labels:
[1] = target: T1, AadA E87A (Salmonella typhimurium, UniProt Q8ZPX9, E87A); assay: ITC binding, AadA E87A; parameters: species or system Salmonella enterica; details: 25°C, in the presence of ATP, nb = no binding detected
T1 construct: made in house; host or cells: Escherichia coli BL21 Star
T1 sequence (Q8ZPX9 1-262 E87A): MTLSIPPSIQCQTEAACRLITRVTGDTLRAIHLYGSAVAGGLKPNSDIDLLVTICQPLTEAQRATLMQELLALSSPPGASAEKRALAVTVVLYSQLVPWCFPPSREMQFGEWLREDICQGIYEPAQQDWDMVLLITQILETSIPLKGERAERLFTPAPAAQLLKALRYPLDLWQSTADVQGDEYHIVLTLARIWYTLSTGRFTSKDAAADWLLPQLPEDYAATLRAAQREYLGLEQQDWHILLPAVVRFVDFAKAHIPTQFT
Protocol: (§1) Binding studies were performed at 25°C using a MicroCal iTC200 instrument (GE Healthcare). Wild-type or mutant AadA at 20–30 µM concentration was dialyzed overnight against 50 mM Tris–HCl pH 7.5, 200 mM NaCl, 5 mM MgCl2, 1 mM tris(2-carboxyethyl)phosphine and titrated with 500–1000 µM ATP, streptomycin (Sigma) or spectinomycin (Sigma) freshly dissolved in the same batch of dialysis buffer prior to each experiment. For titration of streptomycin/spectinomycin in the presence of ATP, a first titration of AadA with ATP to saturation was followed by a second titration with streptomycin/spectinomycin in buffer containing an equivalent concentration of ATP as in the cell. In this way, heats of dilution of ATP were avoided. At least […] consecutive injections of 2 µl were applied at 2 min intervals. The data were analyzed using the MicroCal Analysis plugin in Origin. All ITC data were analyzed assuming one set of binding sites. Each experiment was performed at least twice. For spectinomycin, the concentration used to fit the data was adjusted to the estimated active concentration in binding to AadA, assuming 1:1 binding.

[2] = target: T2, AadA D182N (Salmonella typhimurium, UniProt Q8ZPX9, D182N); assay: ITC binding, AadA D182N; parameters: species or system Salmonella enterica; details: 25°C, in the presence of ATP, read-out: K d of substrate ligand (streptomycin / spectinomycin)
T2 construct: made in house; host or cells: Escherichia coli BL21 Star
T2 sequence (Q8ZPX9 1-262 D182N): T1 sequence (Q8ZPX9 1-262 E87A) with A87E, D182N
Protocol: as §1

[3] = target: T3, AadA wild type (Salmonella typhimurium, UniProt Q8ZPX9); assay: ITC binding, wild-type AadA; parameters: species or system Salmonella enterica; details: for Kd: ITC; for binding to AadA in the absence of ATP (ITC): data not shown
T3 construct: made in house; host or cells: Escherichia coli BL21 Star
T3 sequence (Q8ZPX9 1-262): T1 sequence (Q8ZPX9 1-262 E87A) with A87E
Protocol: as §1

[4] = target: T4, AadA R192A (Salmonella typhimurium, UniProt Q8ZPX9, R192A); assay: ITC binding, AadA R192A; parameters: species or system Salmonella enterica; details: for Kd: in the presence of ATP, read-out: K d of substrate ligand (streptomycin / spectinomycin)
T4 construct: made in house; host or cells: Escherichia coli BL21 Star
T4 sequence (Q8ZPX9 1-262 R192A): T1 sequence (Q8ZPX9 1-262 E87A) with A87E, R192A
Protocol: as §1

[5] = system: AadA Glu87 mutants (E87A and E87Q); assay: ITC binding, Glu87 mutants of AadA stated together; parameters: species or system Salmonella enterica
Protocol: as §1

[6] = target: T5, AadA K205A (Salmonella typhimurium, UniProt Q8ZPX9, K205A); assay: ITC binding, AadA K205A; parameters: species or system Salmonella enterica; details: for Kd: in the presence of ATP, read-out: K d of substrate ligand (streptomycin / spectinomycin)
T5 construct: made in house; host or cells: Escherichia coli BL21 Star
T5 sequence (Q8ZPX9 1-262 K205A): T1 sequence (Q8ZPX9 1-262 E87A) with A87E, K205A
Protocol: as §1

[7] = system: bacterial growth; parameters: method as in vendor (Sigma); details: as sold; as estimated from a bacterial growth assay; ref vendor (Sigma); cited from earlier work
[8] = target: T6, AadA E87Q (Salmonella typhimurium, UniProt Q8ZPX9, E87Q); assay: ITC binding, AadA E87Q; parameters: species or system Salmonella enterica; details: 25°C, in the presence of ATP, nb = no binding detected
T6 construct: made in house; host or cells: Escherichia coli BL21 Star
T6 sequence (Q8ZPX9 1-262 E87Q): T1 sequence (Q8ZPX9 1-262 E87A) with A87Q
Protocol: as §1

[9] = target: T7, AadA W112F (Salmonella typhimurium, UniProt Q8ZPX9, W112F); assay: ITC binding, AadA W112F; parameters: species or system Salmonella enterica; details: 25°C, in the presence of ATP, read-out: K d of substrate ligand (streptomycin / spectinomycin)
T7 construct: made in house; host or cells: Escherichia coli BL21 Star
T7 sequence (Q8ZPX9 1-262 W112F): T1 sequence (Q8ZPX9 1-262 E87A) with A87E, W112F
Protocol: as §1

[10] = 25°C, in the presence of ATP, wild type AadA, read-out: K d of substrate ligand (streptomycin / spectinomycin)
[11] = ITC, 25°C, 5 mM MgCl2, nb = no binding detected

CN[C@@H]1[C@H](O)[C@H](NC)[C@H]2O[C@@]3(O)C(=O)C[C@@H](C)O[C@H]3O[C@@H]2[C@H]1O [Spectinomycin, spectinomycin]
K d of substrate ligand (streptomycin / spectinomycin) [1]: nb | Kd [2]: > 30000 nM | Kd [3, 10]: 500 nM | binding to AadA in the absence of ATP (ITC) [3]: did not display detectable binding | activity in binding to AadA, of the assumed active concentration ([3]; from fit of the ITC data assuming 1:1 binding): 31% | Kd ([4]; ITC, 25°C): > 30000 nM | binding of spectinomycin (ITC) ([5]; Glu87 mutants): no measurable binding | Kd ([6]; ITC, 25°C): > 10000 nM | potency [7]: 603 µg/mg | K d of substrate ligand (streptomycin / spectinomycin) [8]: nb | Kd [9]: 600 nM

Nc1ncnc2c1ncn2[C@@H]1O[C@H](COP(=O)(O)CP(=O)(O)OP(=O)(O)O)[C@@H](O)[C@H]1O [AMPCPP]
binding to wild-type AadA (ITC) ([3]; nucleotide titrated alone): did not show any detectable binding

[H]/N=C(/N)N[C@H]1[C@H](O)[C@@H](O)[C@H](O[C@@H]2O[C@@H](C)[C@](O)(C=O)[C@H]2O[C@@H]2O[C@@H](CO)[C@H](O)[C@@H](O)[C@@H]2NC)[C@@H](N/C(N)=N\[H])[C@@H]1O [Streptomycin, streptomycin]
Kd [2]: 700 nM | Kd [3, 10]: 500 nM | binding to AadA in the absence of ATP (ITC) [3]: did not display detectable binding | Kd ([4]; ITC, 25°C): > 100000 nM | lowered affinity for streptomycin ([5]; Glu87 mutants vs wild type, ITC): 20–40 fold | Kd ([6]; ITC, 25°C): 1300 nM | Kd [9]: 800 nM

Nc1ncnc2c1ncn2[C@@H]1O[C@H](COP(=O)(O)OP(=O)(O)OP(=O)(O)O)[C@@H](O)[C@H]1O [ATP]
Kd ([3]; wild-type AadA, read-out: K d of ATP): 13000 nM | ATP binding (ITC) [4]: no ATP binding could be detected | K d(ATP) [4, 11]: nb | lower affinity for ATP compared with the wild type ([5]; E87Q and E87A vs wild type, ITC): threefold to fourfold lower affinity | ATP binding (ITC) [6]: no ATP binding could be detected | K d(ATP) [6, 11]: nb
